These are literature values, as cited in US20040005347A1, “Composition comprising cocoa” (N. V. NUTRICIA, priority 2001, published 2004).

One data set relates to PMS related symptoms. The conditions noted are these: supplementation.
A further data set relates to serotonin levels. The conditions noted are these: in vitro.

As to `[Mg+2]` [Magnesium], the “PMS related symptoms, especially those related to mood” value in the data set on PMS related symptoms is “improves”.
For `Cn1c(=O)c2c(ncn2C)n(C)c1=O` [caffeine], the serotonin levels entry with serotonin levels was “increase”.
